`COc1cc2c(CC(=O)O)c(C)n(C(=O)c3cccs3)c2cc1F` [[6-fluoro-5-methoxy-2-methyl-1-(thien-2-ylcarbonyl)-1H-indol-3-yl]acetic acid] showed a melting point of 137 °C.
For `Cc1c(CC(=O)O)c2cc(O)c(F)cc2n1C(=O)c1cccs1` [[6-fluoro-5-hydroxy-2-methyl-1-(thien-2-ylcarbonyl)-1H-indol-3-yl] acetic acid], the melting point was 219 °C.
Compound `Cc1c(CC(=O)O)c2cc(O)ccc2n1C(=O)N1CCCCC1` [[5-hydroxy-2-methyl-1-(piperidin-1-ylcarbonyl)-1H-indol-3-yl]acetic acid] has a melting point of 235 °C.
Work on `COc1ccc2c(c1)c(CC(=O)O)c(C)n2C(=O)C1CCCCC1` [[1-(cyclohexylcarbonyl)-5-methoxy-2-methyl-1H-indol-3-yl]acetic acid] yielded a melting point of 129 °C.
Work on `COc1cc2c(CC(=O)O)c(C)n(C(=O)C3CCCCC3)c2cc1F` [[1-(cyclohexylcarbonyl)-6-fluoro-5-methoxy-2-methyl-1H-indol-3-yl]acetic acid] yielded a melting point of 104 °C.
